# According to US6656946B2, “Aminoquinazolines which inhibit signal transduction mediated by tyrosine kinases” (Boehringer Ingelheim Pharma KG, priority 2000, dated 2003):
# Molecular target: T1, human EGF-R (Homo sapiens, UniProt P00533)
# T1 construct: expressed in transfected cells; host or cells: F/L-HERc (murine IL-3-dependent FDC-P1 cells transduced with retroviral vector LXSN carrying the human EGF-R cDNA; packaging line GP+E86)
# Assay: Inhibition of EGF-dependent proliferation of F/L-HERc cells
# Assay type: cell-based
# Settings: F/L-HERc cells (murine IL-3-dependent line expressing human EGF-R), stimulated with EGF 20 ng/ml, 48 hours, Cell Titer 96 AQueous assay
# Source text: A cell line of murine origin dependent on interleukin-3-(IL-3) which was genetically modified to express functional human EGF-R was used here. The proliferation of these cells known as F/L-HERc can therefore be stimulated either by murine IL-3 or by EGF (cf. von Rüden, T. et al. in EMBO J. 7, 2749-2756 (1988) and Pierce, J. H. et al. in Science 239, 628-631 (1988)).
# The starting material used for the F/L-HERc cells was the cell line FDC-P1, the production of which has been described by Dexter, T. M. et al. in J. Exp. Med. 152, 1036-1047 (1980). Alternatively, however, other growth-factor-dependent cells may also be used (cf. for example Pierce, J. H. et al. in Science 239, 628-631 (1988), Shibuya, H. et al. in Cell 70, 57-67 (1992) and Alexander, W. S. et al. in EMBO J. 10, 3683-3691 (1991)). For expressing the human EGF-R cDNA (cf. Ullrich, A. et al. in Nature 309, 418-425 (1984)) recombinant retroviruses were used as described by von Rüden, T. et al., EMBO J. 7, 2749-2756 (1988), except that the retroviral vector LXSN (cf. Miller, A. D. et al. in BioTechniques 7, 980-990 (1989)) was used for the expression of the EGF-R cDNA and the line GP+E86 (cf. Markowitz, D. et al. in J. Virol. 62, 1120-1124 (1988)) was used as the packaging cell.
# The test was performed as follows:
# F/L-HERc cells were cultivated in RPMI/1640 medium (BioWhittaker), supplemented with 10% foetal calf serum (FCS, Boehringer Mannheim), 2 mM glutamine (BioWhittaker), standard antibiotics and 20 ng/ml of human EGF (Promega), at 37° C. and 5% CO2. In order to investigate the inhibitory activity of the compounds according to the invention, 1.5×10^4 cells per well were cultivated in triplicate in 96-well dishes in the above medium (200 μl), the cell proliferation being stimulated with either EGF (20 ng/ml) or murine IL-3. The IL-3 used was obtained from culture supernatants of the cell line X63/0 mIL-3 (cf. Karasuyama, H. et al. in Eur. J. Immunol. 18, 97-104 (1988)). The compounds according to the invention were dissolved in 100% dimethylsulphoxide (DMSO) and added to the cultures in various dilutions, the maximum DMSO concentration being 1%. The cultures were incubated for 48 hours at 37° C.
# In order to determine the inhibitory activity of the compounds according to the invention the relative cell number was measured in O.D. units using the Cell Titer 96™ AQueous Non-Radioactive Cell Proliferation Assay (Promega). The relative cell number was calculated as a percentage of the control (F/LHERc cells without inhibitor) and the concentration of active substance which inhibits the proliferation of the cells by 50% (IC50) was derived therefrom.
# T1 sequence (P00533 25-1210): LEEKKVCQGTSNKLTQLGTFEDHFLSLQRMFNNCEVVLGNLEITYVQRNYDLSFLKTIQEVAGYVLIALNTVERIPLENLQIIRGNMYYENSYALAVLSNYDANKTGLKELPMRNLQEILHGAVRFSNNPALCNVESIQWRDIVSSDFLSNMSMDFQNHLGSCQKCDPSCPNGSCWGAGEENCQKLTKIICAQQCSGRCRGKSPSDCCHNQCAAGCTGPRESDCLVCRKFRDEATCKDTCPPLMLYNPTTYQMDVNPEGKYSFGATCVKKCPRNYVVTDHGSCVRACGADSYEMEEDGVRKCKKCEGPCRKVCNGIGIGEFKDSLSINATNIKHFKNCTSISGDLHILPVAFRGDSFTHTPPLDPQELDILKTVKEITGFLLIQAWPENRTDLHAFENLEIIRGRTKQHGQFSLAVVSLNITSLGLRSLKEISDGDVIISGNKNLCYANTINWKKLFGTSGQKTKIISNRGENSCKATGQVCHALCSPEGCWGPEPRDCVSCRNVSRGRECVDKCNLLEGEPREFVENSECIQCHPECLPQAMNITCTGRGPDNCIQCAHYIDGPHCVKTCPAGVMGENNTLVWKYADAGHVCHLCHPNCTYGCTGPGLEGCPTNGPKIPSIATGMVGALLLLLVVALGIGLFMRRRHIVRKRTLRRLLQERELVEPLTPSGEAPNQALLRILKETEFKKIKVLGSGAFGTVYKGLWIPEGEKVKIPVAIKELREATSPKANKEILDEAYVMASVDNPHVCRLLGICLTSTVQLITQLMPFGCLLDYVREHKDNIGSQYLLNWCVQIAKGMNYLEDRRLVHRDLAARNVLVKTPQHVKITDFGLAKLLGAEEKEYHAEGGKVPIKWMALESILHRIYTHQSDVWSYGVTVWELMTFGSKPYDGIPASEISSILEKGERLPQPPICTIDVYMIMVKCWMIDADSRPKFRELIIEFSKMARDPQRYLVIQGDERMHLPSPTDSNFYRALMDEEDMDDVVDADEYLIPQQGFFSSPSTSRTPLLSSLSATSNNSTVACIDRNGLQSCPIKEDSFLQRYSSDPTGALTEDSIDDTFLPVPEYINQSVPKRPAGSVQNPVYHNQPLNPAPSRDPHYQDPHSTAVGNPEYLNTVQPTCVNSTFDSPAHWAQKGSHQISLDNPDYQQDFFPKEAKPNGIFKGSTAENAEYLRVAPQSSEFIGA
row,IC50 [nM],SMILES
1,59,"CC1(C)CN(CCOc2cc3ncnc(Nc4ccc(F)c(Cl)c4)c3cc2OCC2CCCC2)CC(=O)O1 [Example 1, 4-[(3-Chloro-4-fluorophenyl)amino]-6-cyclopentylmethoxy-7-[2-(6,6-dimethyl-2-oxo-morpholin-4-yl)-ethoxy]-quinazoline]"
2,29,"CC1(C)CN(CCOc2cc3ncnc(Nc4ccc(F)c(Cl)c4)c3cc2OCC2CC2)CC(=O)O1 [1(1), 4-[(3-Chloro-4-fluorophenyl)amino]-6-cyclopropylmethoxy-7-[2-(6,6-dimethyl-2-oxo-morpholin-4-yl)-ethoxy]-quinazoline]"
3,29,"CC1(C)CN(CCCOc2cc3c(Nc4ccc(F)c(Cl)c4)ncnc3cc2OC2CCC2)CC(=O)O1 [1(2), 4-[(3-Chloro-4-fluorophenyl)amino]-7-cyclobutyloxy-6-[3-(6,6-dimethyl-2-oxo-morpholin-4-yl)-propyloxy]-quinazoline]"
4,36,"CN(CCOc1cc2ncnc(Nc3ccc(F)c(Cl)c3)c2cc1OC1CCCC1)C1COC(=O)C1 (centres unmarked) [2(1), 4-[(3-Chloro-4-fluorophenyl)amino]-6-cyclopentyloxy-7-{2-[N-(2-oxo-tetrahydrofuran-4-yl)-N-methyl-amino]-ethoxy}-quinazoline]"

# Test system: not given
# Assay: not given
# Settings: not given
row,melting point [°C],SMILES
1,193,"COc1cc2ncnc(Nc3cccc(Br)c3)c2cc1OCCN1CC(=O)O[C@H](C)C1 [Example 3(1), 4-[(3-Bromo-phenyl)amino]-6-[2-((R)-6-methyl-2-oxo-morpholin-4-yl)-ethoxy]-7-methoxy-quinazoline]"
2,202 to 205,"CC1(C)CN(CCOc2cc3ncnc(Nc4ccc(F)c(Cl)c4)c3cc2O[C@H]2CCOC2)CC(=O)O1 [Example 3(30), 4-[(3-chloro-4-fluorophenyl)amino]-7-[2-(6,6-dimethyl-2-oxo-morpholin-4-yl)-ethoxy]-6-((S)-tetrahydrofuran-3-yloxy)-quinazoline]"
3,160 to 162,"C[C@H]1CN(CCCOc2cc3c(Nc4ccc(F)c(Cl)c4)ncnc3cc2OCC2CC2)CC(=O)O1 [Example 3(9), 4-[(3-Chloro-4-fluorophenyl)amino]-6-[3-((S)-6-methyl-2-oxo-morpholin-4-yl)-propyloxy]-7-cyclopropylmethoxy-quinazoline]"
4,183 to 186,"COc1cc2ncnc(Nc3ccc(F)c(Cl)c3)c2cc1OCCCN1CC(=O)O[C@@H](C)C1 [Example 3(23), 4-[(3-Chloro-4-fluorophenyl)amino]-6-[3-((S)-6-methyl-2-oxo-morpholin-4-yl)-propyloxy]-7-methoxy-quinazoline]"
5,229 to 232,"COc1cc2ncnc(Nc3ccc(F)c(Cl)c3)c2cc1OCCN1CC(=O)OC(C)(C)C1 [Example 3(27), 4-[(3-Chloro-4-fluorophenyl)amino]-6-[2-(6,6-dimethyl-2-oxo-morpholin-4-yl)-ethoxy]-7-methoxy-quinazoline]"
6,176 to 178,"C[C@@H]1CN(CCOc2cc3c(Nc4ccc(F)c(Cl)c4)ncnc3cc2OC2CCCC2)CC(=O)O1 [Example 3(11), 4-[(3-Chloro-4-fluorophenyl)amino]-6-[2-((R)-6-methyl-2-oxo-morpholin-4-yl)-ethoxy]-7-cyclopentyloxy-quinazoline]"
7,187 to 190,"COc1cc2ncnc(Nc3ccc(F)c(Cl)c3)c2cc1OCCN(CC(=O)O)C[C@H](C)O [Example 3(26), 4-[(3-Chloro-4-fluorophenyl)amino]-6-{2-[N-(carboxymethyl)-N-((S)-2-hydroxy-propyl)-amino]-ethoxy}-7-methoxy-quinazoline]"
8,185.5 to 189.5,"C[C@@H]1CN(CCCOc2cc3c(Nc4ccc(F)c(Cl)c4)ncnc3cc2OC2CCC2)CC(=O)O1 [Example 3(6), 4-[(3-Chloro-4-fluorophenyl)amino]-6-[3-((R)-6-methyl-2-oxo-morpholin-4-yl)-propyloxy]-7-cyclobutyloxy-quinazoline]"
9,195 to 196,"CC1(C)CN(CCOc2cc3c(Nc4ccc(F)c(Cl)c4)ncnc3cc2O[C@@H]2CCOC2)CC(=O)O1 [Example 3(28), 4-[(3-chloro-4-fluorophenyl)amino]-6-[2-(6,6-dimethyl-2-oxo-morpholin-4-yl)-ethoxy]-7-((R)-tetrahydrofuran-3-yloxy)-quinazoline]"
10,182,"CC1(C)CN(CCOc2cc3ncnc(Nc4ccc(F)c(Cl)c4)c3cc2OC[C@@H]2CCCO2)CC(=O)O1 [Example 3(31), 4-[(3-chloro-4-fluorophenyl)amino]-7-[2-(6,6-dimethyl-2-oxo-morpholin-4-yl)-ethoxy]-6-[(S)-(tetrahydrofuran-2-yl)methoxy]-quinazoline]"
11,130,"COc1cc2ncnc(Nc3cccc(Br)c3)c2cc1OCCN(CC(=O)OC(C)(C)C)C[C@@H](C)O [Example 4(1), 4-[(3-Bromo-phenyl)amino]-6-(2-{N-[(tert.butyloxycarbonyl)methyl]-N-((R)-2-hydroxy-propyl)-amino}-ethoxy)-7-methoxy-quinazoline]"
12,212 to 214,"CC1(C)CN(CCCOc2cc3c(Nc4ccc(F)c(Cl)c4)ncnc3cc2OC2CCC2)CC(=O)O1 [1(2), 4-[(3-Chloro-4-fluorophenyl)amino]-7-cyclobutyloxy-6-[3-(6,6-dimethyl-2-oxo-morpholin-4-yl)-propyloxy]-quinazoline]"
13,212 to 213,"COc1cc2ncnc(Nc3ccc(F)c(Cl)c3)c2cc1OCCN1CC(=O)O[C@@H](C)C1 [3(25), 4-[(3-Chloro-4-fluorophenyl)amino]-6-[2-((S)-6-methyl-2-oxo-morpholin-4-yl)-ethoxy]-7-methoxy-quinazoline]"
14,208,"COc1cc2ncnc(Nc3ccc(F)c(Cl)c3)c2cc1OCCN1CC(=O)O[C@H](C)C1 [Example 3(2), 4-[(3-Chloro-4-fluorophenyl)amino]-6-[2-((R)-6-methyl-2-oxo-morpholin-4-yl)-ethoxy]-7-methoxy-quinazoline]"
15,160.5 to 163,"C[C@@H]1CN(CCCOc2cc3c(Nc4ccc(F)c(Cl)c4)ncnc3cc2OCC2CC2)CC(=O)O1 [Example 3(8), 4-[(3-Chloro-4-fluorophenyl)amino]-6-[3-((R)-6-methyl-2-oxo-morpholin-4-yl)-propyloxy]-7-cyclopropylmethoxy-quinazoline]"
16,147.5 to 151,"CN(CCCOc1cc2c(Nc3ccc(F)c(Cl)c3)ncnc2cc1OC1CCC1)C1COC(=O)C1 (centres unmarked) [Example 2(2), 4-[(3-Chloro-4-fluorophenyl)amino]-6-{3-[N-(2-oxo-tetrahydrofuran-4-yl)-N-methyl-amino]-propyloxy}-7-cyclobutyloxy-quinazoline]"
17,190,"COc1cc2ncnc(Nc3cccc(Br)c3)c2cc1OCCN1CC(=O)O[C@@H](C)C1 [Example 3, 4-[(3-Bromo-phenyl)amino]-6-[2-((S)-6-methyl-2-oxo-morpholin-4-yl)-ethoxy]-7-methoxy-quinazoline]"
18,184,"CC1(C)CN(CCOc2cc3c(Nc4ccc(F)c(Cl)c4)ncnc3cc2OC[C@H]2CCCO2)CC(=O)O1 [Example 3(29), 4-[(3-chloro-4-fluorophenyl)amino]-6-[2-(6,6-dimethyl-2-oxo-morpholin-4-yl)-ethoxy]-7-[(R)-(tetrahydrofuran-2-yl)methoxy]-quinazoline]"
19,214 to 216,"CC1(C)COC(=O)CN1CCCOc1cc2c(Nc3ccc(F)c(Cl)c3)ncnc2cc1OC1CCC1 [Example 3(7), 4-[(3-Chloro-4-fluorophenyl)amino]-6-[3-(5,5-dimethyl-2-oxo-morpholin-4-yl)-propyloxy]-7-cyclobutyloxy-quinazoline]"
